This is an account of results in patent US6177438A, “Morphinan derivatives and pharmaceutical use thereof” (priority 1993, dated 2001).

A short description of assay [1]: Diuretic action (urine output for 5 hours after physiological saline loading in rats). It is filed as in vivo, male Wistar rats. The conditions noted are these: Rattus norvegicus, sc, 5 hours after saline 20 ml/kg p.o.; for ED (200% urine output): dose giving urine output of 200 (non-dosed group = 100); for ED (500% urine output): dose giving urine output of 500 (non-dosed group = 100). The method, then: 7-8 week old male Wistar rats were used in this test after prohibiting from drinking water for 1 hour before the start of testing. After discharging any urine accumulated in the bladder by gently stimulating the lower abdomens of the animals, the drug was administered subcutaneously. After 30 minutes, the animals were then forcibly given 20 ml/kg of physiological saline orally. The animals were placed in metabolic cages immediately after administration of the drug (2 animals/cage) and urine output for 5 hours after loading with physiological saline was measured. Drug efficacy was expressed in the form of those doses resulting in urine outputs of 200 and 500, respectively, when the urine output of a non-dosed group was taken to be 100. Those doses were expressed as the ED200 and ED500 values, respectively.

For assay [2], the system named is acetic acid-induced writhing in ddy mice. The assay is described as follows: animal or person. It counts as in vivo, 5 week old ddy mice. The note with it: Mus musculus, sc, s.c. 15 minutes before acetic acid, read-out: ED50. The method, then:
5 week old ddy mice were used in this test. After intraperitoneal administration of 0.1 ml of 0.6% aqueous acetic acid per 10 g of body weight, the number of writhing reactions that occurred in 10 minutes starting 10 minutes after administration was evaluated for the indicator. The test drug was administered subcutaneously into the backs of the animals 15 minutes before administration of acetic acid.

Counter-ions that a name gives are not always drawn.

Turning to `CCC/C=C/C(=O)N(C)[C@H]1CC[C@@]2(O)[C@H]3Cc4ccc(O)c5c4[C@@]2(CCN3CC2CC2)[C@H]1O5` [Compound 95, 17-cyclopropylmethyl-3,14β-dihydroxy-4,5α-epoxy-6α-(N-methyl-trans-2-hexenamido)morphinan.cndot.tartrate], in assay [1], the ED (200% urine output) came to 0.0028 mg/kg and the ED (500% urine output) was 0.0968 mg/kg. In addition, the ED50 in assay [2] was 0.0081 mg/kg. As to `CN(C(=O)c1ccc(Cl)c(Cl)c1)[C@H]1CC[C@@]2(O)[C@H]3Cc4ccc(O)c5c4[C@@]2(CCN3CC2CC2)[C@H]1O5` [Compound 27, 17-cyclopropylmethyl-3,14β-dihydroxy-4,5α-epoxy-6α-(N-methyl-3,4-dichlorobenzamido)morphinan.cndot.hydrochloride], in assay [1], the ED (200% urine output) was determined as 0.0248 mg/kg and the ED (500% urine output) is 2.08 mg/kg. In assay [2], the ED50 was found to be 0.046 mg/kg. Taken in the same sequence, the figures for `CN(C(=O)Cc1ccc(F)c(F)c1)[C@H]1CC[C@@]2(O)[C@H]3Cc4ccc(O)c5c4[C@@]2(CCN3CC2CC2)[C@H]1O5` [Compound 105, 17-cyclopropylmethyl-3,14β-dihydroxy-4,5α-epoxy-6α-(N-methyl-3,4-difluorophenylacetamido)morphinan.cndot.hydrochloride] were 0.019 mg/kg, 3.3 mg/kg and 0.098 mg/kg. On to `CN(C(=O)Cc1ccc(Br)cc1)[C@H]1CC[C@@]2(O)[C@H]3Cc4ccc(O)c5c4[C@@]2(CCN3CC2CC2)[C@H]1O5` [Compound 28, 17-cyclopropylmethyl-3,14β-dihydroxy-4,5α-epoxy-6α-(N-methyl-4-bromophenylacetamido)morphinan.cndot.hydrobromide], for which, in assay [1], the ED (200% urine output) stood at 0.02 mg/kg and the ED (500% urine output) amounted to 3.8 mg/kg. Moreover, the ED50 in assay [2] worked out at 0.071 mg/kg. Turning to `COc1cccc(C#CC(=O)N(C)[C@H]2CC[C@@]3(O)[C@H]4Cc5ccc(O)c6c5[C@@]3(CCN4CC3CC3)[C@H]2O6)c1.O=C(O)C(O)C(O)C(=O)O` [Compound 184, 17-cyclopropylmethyl-3,14β-dihydroxy-4,5α-epoxy-6α-[N-methyl-3-(3-methoxyphenyl)propiolamido]morphinan tartrate], in assay [1], the ED (200% urine output) was 0.00444 mg/kg and the ED (500% urine output) was found to be 0.0326 mg/kg. The ED50 in assay [2] is 0.0043 mg/kg.

For the compound `CN(C(=O)CSc1ccccc1)[C@@H]1CC[C@@]2(O)[C@H]3Cc4ccc(O)c5c4[C@@]2(CCN3CC2CC2)[C@H]1O5` [Compound 65, 17-cyclopropylmethyl-3,14β-dihydroxy-4,5α-epoxy-6β-(N-methylthiophenoxyacetamido)morphinan.cndot.tartrate], in assay [1], the ED (200% urine output) worked out at 0.119 mg/kg and the ED (500% urine output) turned out to be 5.31 mg/kg. Further, in assay [2], the ED50 came out at 0.15 mg/kg. With `CN(C(=O)/C=C/c1ccccc1C(F)(F)F)[C@@H]1CC[C@@]2(O)[C@H]3Cc4ccc(O)c5c4[C@@]2(CCN3CC2CC2)[C@H]1O5` [Compound 72, 17-cyclopropylmethyl-3,14β-dihydroxy-4,5α-epoxy-6β-(N-methyl-2-trifluoromethylcinnamamido)morphinan.cndot.hydrochloride], the ED50 in assay [2] is 0.18 mg/kg. In the case of `CN(C(=O)C#Cc1ccco1)[C@H]1CC[C@@]2(O)[C@H]3Cc4ccc(O)c5c4[C@@]2(CCN3CC2CC2)[C@H]1O5.O=C(O)C(O)C(O)C(=O)O` [Compound 186, 17-cyclopropylmethyl-3,14β-dihydroxy-4,5α-epoxy-6α-[N-methyl-3-(2-furyl)propiolamido]morphinan tartrate], the median effective dose (ED50) in assay [2] was determined as 0.0061 mg/kg.

Take `CN(C(=O)OCc1cccnc1)[C@H]1CC[C@@]2(O)[C@H]3Cc4ccc(O)c5c4[C@@]2(CCN3CC2CC2)[C@H]1O5` [Compound 44, 17-cyclopropylmethyl-4,5α-epoxy-3,14β-dihydroxy-6α-[N-methyl-(3-pyridyl)methyloxycarbamido]morphinan.cndot.tartrate]: the median effective dose (ED50) in assay [2] is 0.084 mg/kg. In the case of `Cc1occc1/C=C/C(=O)N(C)[C@@H]1CC[C@@]2(O)[C@H]3Cc4ccc(O)c5c4[C@@]2(CCN3CC2CC2)[C@H]1O5.Cl` (relative stereo) [Compound 159, 17-cyclopropylmethyl-3,14β-dihydroxy-4,5α-epoxy-6β-[N-methyl-trans-3-(2-methyl-3-furyl)acrylamido]morphinan hydrochloride], in assay [2], the ED50 came out at 0.0032 mg/kg. `CN(C(=O)OCc1ccccc1)[C@H]1CC[C@@]2(O)[C@H]3Cc4cccc5c4[C@@]2(CCN3CC2CC2)[C@H]1O5` [Compound 74, 17-cyclopropylmethyl-14β-hydroxy-4,5α-epoxy-6α-(N-methylbenzyloxycarbamido)morphinan.cndot.phosphate]: in assay [2], the 50% effective dose (ED50) came out at 0.78 mg/kg. Same read-out and setting: to `Cc1ccc(/C=C/C(=O)N(C)[C@@H]2CC[C@@]3(O)[C@H]4Cc5ccc(O)c6c5[C@@]3(CCN4CC3CC3)[C@H]2O6)o1.Cl` (relative stereo) [Compound 158, 17-cyclopropylmethyl-3,14β-dihydroxy-4,5α-epoxy-6β-[N-methyl-trans-3-(5-methyl-2-furyl)acrylamido]morphinan hydrochloride] belongs 0.0071 mg/kg. Consider `COc1ccc2c3c1O[C@H]1[C@@H](N(C)C(=O)Cc4ccc(Cl)c(Cl)c4)CC[C@@]4(O)[C@@H](C2)N(CC2CC2)CC[C@]314` [Compound 142, 17-cyclopropylmethyl-4,5α-epoxy-14β-hydroxy-3-methoxy-6α-(N-methyl-3,4-dichlorophenylacetamido)morphinan.cndot.tartrate], for which, in assay [2], the 50% effective dose (ED50) worked out at 0.78 mg/kg. With `CN(C(=O)NCc1ccccc1)[C@H]1CC[C@@]2(O)[C@H]3Cc4ccc(O)c5c4[C@@]2(CCN3CC2CC2)[C@H]1O5` [Compound 132, 17-Cyclopropylmethyl-3,14β-dihydroxy-4,5α-epoxy-6α-(N-methyl-N'-benzylureido)morphinan.cndot.tartrate], the ED50 in assay [2] is 0.073 mg/kg. `CN([C@H]1CC[C@@]2(O)[C@H]3Cc4ccc(O)c5c4[C@@]2(CCN3CC2CC2)[C@H]1O5)S(=O)(=O)Cc1ccc(Cl)c(Cl)c1` [Compound 128, 17-cyclopropylmethyl-4,5α-epoxy-3,14β-dihydroxy-6α-(N-methyl-3,4-dichlorophenylmethanesulfonamido)morphinan.cndot.tartrate]: in assay [2], the ED50 is 0.63 mg/kg. On to `CN(C(=O)CCc1cccnc1)[C@H]1CC[C@@]2(O)[C@H]3Cc4ccc(O)c5c4[C@@]2(CCN3CC2CC2)[C@H]1O5` [Compound 41, 17-cyclopropylmethyl-3,14β-dihydroxy-4,5α-epoxy-6α-[N-methyl-3-(3-pyridyl)propionamido]morphinan.cndot.tartrate], for which, in assay [2], the ED50 amounted to 0.39 mg/kg. As to `CN(C(=O)CCC1CCCCC1)[C@H]1CC[C@@]2(O)[C@H]3Cc4ccc(O)c5c4[C@@]2(CCN3CC2CC2)[C@H]1O5` [Compound 94, 17-cyclopropylmethyl-3,14β-dihydroxy-4,5α-epoxy-6α-(N-methyl-3-cyclohexylpropionamido)morphinan.cndot.hydrochloride], the ED50 in assay [2] was found to be 0.013 mg/kg. In the case of `COc1ccc(C#CC(=O)N(C)[C@H]2CC[C@@]3(O)[C@H]4Cc5ccc(O)c6c5[C@@]3(CCN4CC3CC3)[C@H]2O6)cc1.O=C(O)C(O)C(O)C(=O)O` [Compound 187, 17-cyclopropylmethyl-3,14β-dihydroxy-4,5α-epoxy-6α-[N-methyl-3-(4-methoxyphenyl)propiolamido]morphinan tartrate], the 50% effective dose (ED50) in assay [2] was determined as 0.026 mg/kg.
